In BindingDB's records for patent US20250034135 (Hangzhou Healzen Therapeutics Co., 2025) one finds IC50 data, which are given here for 13 compounds.

The target in one data set is CYP3A4 (Homo sapiens, UniProt P08684). The data set can be described thus: CYP3A4 Enzyme Inhibitory Activity. As to conditions: recombinant CYP3A4 (CYP450 BACULOSOMES Plus reagent), probe Vivid substrate (Vivid CYP3A4 Green kit).
The target in data set [1] is Isoform Bcl-X(L) of Bcl-2-like protein 1 (Bcl-xL) (Homo sapiens, UniProt Q07817). As to the kind of experiment: BCL-XL Enzyme Molecular Level Activity Test. As for the experimental part: (§1) In a white shallow 384-well plate, a total reaction volume was 10 μL. Specifically, it included 2 μL of the compound to be tested (2% DMSO), 4 L His-tagged recombinant protein, and 4 μL Biotin-tagged BIM protein peptide. After 1 hour of reaction, 5 μL of each Anti-His and streptavidin-tagged XL665 antibody diluents diluted with a detection buffer were added. After incubating at room temperature for 4 hours, the values were read using the Envision multifunctional microplate reader to detect the effect of the compound to be tested on the binding ability of BCL-XL to BIM protein peptides. The Envision parameter settings were exciting light at 320 nm, and emitting light at 615 nm and 665 nm. The binding ability of anti-apoptotic proteins to Bim protein peptides was indirectly reflected by the signal ratio of 665 nm and 615 nm. In the reaction, background wells without BCL2 and active wells for full binding of recombinant proteins without compounds and Bim protein peptides were set up.
Chain of Isoform Bcl-X(L) of Bcl-2-like protein 1 (Bcl-xL) (Q07817 whole entry G70A, canonical isoform): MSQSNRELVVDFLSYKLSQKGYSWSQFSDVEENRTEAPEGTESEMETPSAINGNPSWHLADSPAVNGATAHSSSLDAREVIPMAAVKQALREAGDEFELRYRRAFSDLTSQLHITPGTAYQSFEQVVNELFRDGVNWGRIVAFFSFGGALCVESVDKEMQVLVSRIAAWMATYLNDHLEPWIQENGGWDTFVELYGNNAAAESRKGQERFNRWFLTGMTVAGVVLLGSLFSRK

The target of data set [2] is Apoptosis regulator Bcl-2 (Homo sapiens, UniProt P10415). The data set can be described thus: Molecular Level Activity Test of Anti-Apoptotic Protein BCL2. As for the experimental part:
as §1, with “The detection of the binding ability between anti-apoptotic protein BCL2 and pro-apoptotic protein Bim was performed using Homogeneous Time-Resolved Fluorescence technology. The reaction of this method occurred in a” for “In a”, “plate, with” for “plate,”, “volume of” for “volume was”, “4 μL” for “4 L”, “of BCL2” for “of BCL-XL”, “to Bim” for “to BIM”

The target of data set [3] is Apoptosis regulator Bcl-2 [G101V] (Homo sapiens, UniProt P10415, G101V). The data set can be described thus: Molecular Level Activity Test of Anti-Apoptotic Protein BCL2 (G101V). Here is the method:
as §1, with “The detection of the binding ability between anti-apoptotic protein BCL2 (G101V) and pro-apoptotic protein Bim was performed using Homogeneous Time-Resolved Fluorescence technology. The reaction of this method occurred in a” for “In a”, “plate, with” for “plate,”, “volume of” for “volume was”, “4 μL” for “4 L”, “5 L” for “5 μL”, “of BCL2 (G101V)” for “of BCL-XL”

SMILES strings stand for the structures. Bounds are passed on as bounds.

Chain of CYP3A4 (P08684 whole entry, canonical isoform): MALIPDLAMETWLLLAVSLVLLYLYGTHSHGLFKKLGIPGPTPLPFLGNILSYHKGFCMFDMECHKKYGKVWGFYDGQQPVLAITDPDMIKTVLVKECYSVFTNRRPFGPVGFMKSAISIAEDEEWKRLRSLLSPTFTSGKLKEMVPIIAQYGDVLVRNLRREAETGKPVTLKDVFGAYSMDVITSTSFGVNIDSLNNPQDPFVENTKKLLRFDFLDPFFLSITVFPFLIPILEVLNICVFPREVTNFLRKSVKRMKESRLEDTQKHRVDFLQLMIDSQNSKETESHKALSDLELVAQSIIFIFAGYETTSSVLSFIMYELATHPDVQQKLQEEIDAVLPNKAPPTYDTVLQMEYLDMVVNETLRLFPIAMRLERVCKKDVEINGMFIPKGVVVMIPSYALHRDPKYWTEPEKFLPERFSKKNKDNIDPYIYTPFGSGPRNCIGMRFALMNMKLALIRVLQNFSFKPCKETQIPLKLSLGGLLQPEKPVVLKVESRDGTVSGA
Procedure for CYP3A4: The inhibitory activity of compounds on human CYP3A4 enzyme was detected using a VIVID™ CYP3A4 GREEN SCRNING KIT reagent kit. The Vivid™ CYP450 screening kit includes a Vivid™ substrate, Vivid™ fluorescence standard, reaction buffer, Vivid™ regeneration system, NADP+ and CYP450 BACULOSOMES™ Plus reagent. Operations were performed following the instructions, and a blank control group was set up without adding any compounds.

Regarding `COc1ccc(CN2CCN(C3CC4(CCN(c5ccc(C(=O)NS(=O)(=O)c6ccc(NC[C@H]7CC[C@](C)(O)CC7)c([N+](=O)[O-])c6)c(OC(C=N)Cc6cc[nH]c6)c5)CC4)C3)[C@H](c3ccccc3C(C)C)C2)cc1` (stereo partly specified) [US20250034135, Compound a], the concentration for half-maximal inhibition (IC50) on CYP3A4 was 2550 nM. As to `COc1ccccc1CN1CCN(C2CC3(CCN(c4cc(Oc5cnc6[nH]ccc6c5)c(C(=O)NS(=O)(=O)c5ccc(NCC6(F)CCOCC6)c([N+](=O)[O-])c5)cc4F)CC3)C2)[C@H](c2ccccc2C(C)C)C1` [US20250034135, Compound 185], the IC50 is greater than 500 nM in data set [1] and less than 10 nM in data set [2]. Regarding `COc1ccc(CN2CCN(C3CC4(C3)CN(c3cc(Oc5cnc6[nH]ccc6c5)c(C(=O)NS(=O)(=O)c5ccc(NCC6(F)CCN(C7COC7)CC6)c([N+](=O)[O-])c5)cc3F)C4)C(c3ccccc3C(C)C)C2)cc1` (stereo unspecified) [US20250034135, Compound 058], the IC50 in data set [1] is greater than 1000 nM; in data set [3], less than 10 nM. As for `CC(C)c1ccccc1[C@@H]1CCCN1C1CC2(CCN(c3ccc(C(=O)NS(=O)(=O)c4cc([N+](=O)[O-])c(NCC5(F)CCN(C6COC6)CC5)c5[nH]cnc45)c(Oc4cnc5[nH]cc(F)c5c4)c3)CC2)C1` [US20250034135, Compound 012], the IC50 in data set [2] is less than 10 nM. As for `COc1ccc(CN2CCN(C3CC4(CCN(c5cc(Oc6cnc7[nH]ccc7c6)c(C(=O)NS(=O)(=O)c6ccc(NCC7(F)CCN(C8COC8)CC7)c([N+](=O)[O-])c6)cc5F)CC4)C3)C(c3ccccc3C(C)C)C2)cc1` (stereo unspecified) [US20250034135, Compound 057], the IC50 in data set [2] was less than 10 nM. `CC(C)c1ccccc1[C@@H]1CCCN1C1CC2(CCN(c3cc(Oc4cnc5[nH]cc(F)c5c4)c(C(=O)NS(=O)(=O)c4cc([N+](=O)[O-])c(NCC5(F)CCN(C6COC6)CC5)c5[nH]cnc45)cc3F)CC2)C1` [US20250034135, Compound 038] registered a half-maximal inhibitory concentration (IC50) in data set [2] of less than 10 nM.

On to `CC(C)c1ccccc1[C@@H]1CN(Cc2ccc(F)cc2F)CCN1C1CC2(CCN(c3cc(Oc4cnc5[nH]ccc5c4)c(C(=O)NS(=O)(=O)c4ccc(NCC5(F)CCOCC5)c([N+](=O)[O-])c4)cc3F)CC2)C1` [US20250034135, Compound 191], for which the IC50 in data set [2] is less than 10 nM. In data set [2], `CC(C)c1ccccc1[C@@H]1CN(Cc2c(F)cccc2F)CCN1C1CC2(CCN(c3cc(Oc4cnc5[nH]ccc5c4)c(C(=O)NS(=O)(=O)c4ccc(NCC5(F)CCOCC5)c([N+](=O)[O-])c4)cc3F)CC2)C1` [US20250034135, Compound 192] displayed a half-inhibitory concentration (IC50) of less than 10 nM. In the case of `CC(C)c1ccccc1[C@@H]1CCCN1C1CC2(CCN(c3cc(Oc4cnc5[nH]ccc5c4)c(C(=O)NS(=O)(=O)c4cc([N+](=O)[O-])c(NCC5(F)CCN(C6COC6)CC5)c5c4ncn5C)cc3F)CC2)C1` [US20250034135, Compound 036], the concentration for half-maximal inhibition (IC50) in data set [2] was less than 10 nM. The same measure, in the same setting: the same measure for `CC(C)c1ccccc1[C@@H]1CCCN1C1CC2(CCN(c3cc(Oc4cnc5[nH]ccc5c4)c(C(=O)NS(=O)(=O)c4cc([N+](=O)[O-])c(NCC5(F)CCN(C6COC6)CC5)c5[nH]cnc45)cc3F)CC2)C1` [US20250034135, Compound 020]: less than 10 nM; for `CC(C)c1ccccc1[C@@H]1CCCN1C1CC2(CCN(c3ccc(C(=O)NS(=O)(=O)c4cc([N+](=O)[O-])c(NCC5(F)CCN(C(C)C)CC5)c5c4ncn5C)c(Oc4cnc5[nH]ccc5c4)c3)CC2)C1` [US20250034135, Compound 008]: less than 10 nM. Take `CC(C)c1ccccc1[C@@H]1CN(Cc2cnn(C)c2)CCN1C1CC2(CCN(c3cc(Oc4cnc5[nH]ccc5c4)c(C(=O)NS(=O)(=O)c4ccc(NC[C@H]5CC[C@](C)(O)CC5)c([N+](=O)[O-])c4)cc3F)CC2)C1` [US20250034135, Compound 238]: in data set [1], the IC50 was greater than 500 nM.

Regarding `CC(C)c1ccccc1[C@@H]1CN(Cc2ccccc2F)CCN1C1CC2(CCN(c3cc(Oc4cnc5[nH]ccc5c4)c(C(=O)NS(=O)(=O)c4ccc(NCC5(F)CCOCC5)c([N+](=O)[O-])c4)cc3F)CC2)C1` [US20250034135, Compound 187], the figures for the IC50 in data set [1] and in data set [2] were greater than 500 nM and less than 10 nM, respectively.

For orientation: IC50 means the concentration that inhibits the measured activity by half.
